Results on 25 compounds are retold here after patent US20220402869A1, “TRANSCRIPTIONAL ENHANCED ASSOCIATE DOMAIN (TEAD) TRANSCRIPTION FACTOR INHIBITORS AND USES THEREOF” (Dana-Farber Cancer Institute, Inc., priority 2018, published 2022).

This experiment deals with TEAD transcriptional activity. Description: Inhibition of TEAD-driven transcription (8×GTIIC-luciferase reporter assay). The following applies: 40 μM at 24 hour treatment. Type of experiment: cell-based. Here is the method:
The compounds were tested for their ability to inhibit TEAD-driven transcription.
8×GTIIC-luciferase plasmid, containing 8 TEAD binding sites (ACATTCCA), was obtained from Addgene (Addgene #34615). MDA-MB-231 cells were transfected with 8×GTIIC-luciferase and stable clone was obtained using neomycin selection. The TEAD transcriptional activity was monitored by assessing the luciferase activity using luciferase assay system (Promega). Each data point represents mean±standard deviation.
Background: A reporter such as luciferase makes a cellular process visible.

The term inhibition denotes the relative decrease from the control value, in per cent. As to `C=CC(=O)N1CCC[C@@H](Nc2cccc(C(F)(F)F)c2)C1` [Compound I-1, (R)-1-(3-((3-(trifluoromethyl)phenyl)amino)piperidin-1-yl)prop-2-en-1-one], the inhibition at 40 µM was 50%.

Compound `O=C(CCl)N1CCC[C@@H](Nc2cccc(C(F)(F)F)c2)C1` [Compound I-2, (R)-2-chloro-1-(3-((3-(trifluoromethyl)phenyl)amino)piperidin-1-yl)ethan-1-one] registered an inhibition at 40 µM of 50%.

Consider `O=C(CCl)N1CCC(Nc2cccc(C(F)(F)F)c2)C1` (stereo not shown) [Compound I-10, 2-chloro-1-(3-((3-(trifluoromethyl)phenyl)amino)pyrrolidin-1-yl)ethan-1-one], for which the inhibition at 40 µM was 90%.

The compound `C=CC(=O)N1CCC(Nc2cccc(C(F)(F)F)c2)C1` (stereo not shown) [Compound I-11, 1-(3-((3-(trifluoromethyl)phenyl)amino)pyrrolidin-1-yl)prop-2-en-1-one] yielded an inhibition at 40 µM of 90%.

The compound `O=C(CCl)N1CCC[C@H](Nc2cccc(C(F)(F)F)c2)C1` [Compound I-14, (S)-2-chloro-1-(3-((3-(trifluoromethyl)phenyl)amino)piperidin-1-yl)ethan-1-one] came in with an inhibition at 40 µM of 70%.

`C=CC(=O)N1CCC[C@H](Nc2cccc(C(F)(F)F)c2)C1` [Compound I-15, (S)-1-(3-((3-(trifluoromethyl)phenyl)amino)piperidin-1-yl)prop-2-en-1-one] came in with an inhibition at 40 µM of 70%.

The compound `C#Cc1cc(N[C@@H]2CCCN(C(=O)CCl)C2)cc(C(F)(F)F)c1` [Compound I-18] had an inhibition at 40 µM of 50%.

For `O=C(CCl)N1CCCC(Nc2cccc(C(F)(F)F)c2)C1` (stereo not shown) [Compound I-19, 2-chloro-1-(3-((3-(trifluoromethyl)phenyl)amino)piperidin-1-yl)ethan-1-one], testing at 40 µM gave an inhibition of 50%.

With `O=C(CCl)N1CCC[C@@H](Oc2cccc(C(F)(F)F)c2)C1` [Compound I-20, (R)-2-chloro-1-(3-(3-(trifluoromethyl)phenoxy)piperidin-1-yl)ethan-1-one], the inhibition at 40 µM turned out to be 70%.

Compound `C=CC(=O)N1CCC[C@@H](Oc2cccc(C(F)(F)F)c2)C1` [Compound I-21] returned an inhibition at 40 µM of 70%.

Regarding `CCC(=O)N1CCC(Nc2cccc(C(F)(F)F)c2)C1` (stereo not shown) [Compound I-27, 1-(3-((3-(trifluoromethyl)phenyl)amino)pyrrolidin-1-yl)propan-1-one], testing at 40 µM gave an inhibition of 70%.

`O=C(CCl)Nc1ccccc1Nc1cccc(C(F)(F)F)c1` [Compound I-31, 2-chloro-N-(2-((3-(trifluoromethyl)phenyl)amino)phenyl)acetamide]: at 40 µM the inhibition was 90%.

On to `O=C(CCl)N1CC(c2cccc(C(F)(F)F)c2)c2ccccc21` (stereo not shown) [Compound I-35, 2-chloro-1-(3-(3-(trifluoromethyl)phenyl)indolin-1-yl)ethan-1-one], for which the inhibition at 40 µM is 70%.

The compound `CN(C)C/C=C/C(=O)N1CC[C@H](Nc2cccc(C(F)(F)F)c2)C1` [Compound I-47, (S,E)-4-(dimethylamino)-1-(3-((3-(trifluoromethyl)phenyl)amino)pyrrolidin-1-yl)but-2-en-1-one] gave an inhibition at 40 µM of 50%.

The compound `C=CC(=O)N1CC[C@H](N(C)c2cccc(C(F)(F)F)c2)C1` [Compound I-48, (S)-1-(3-(methyl(3-(trifluoromethyl)phenyl)amino)pyrrolidin-1-yl)prop-2-en-1-one] had an inhibition at 40 µM of 50%.

Regarding `C=CC(=O)N1CC[C@H](Nc2cccc(N3CCN(C)CC3)c2)C1` [Compound I-49, (S)-1-(3-((3-(4-methylpiperazin-1-yl)phenyl)amino)pyrrolidin-1-yl)prop-2-en-1-one], the inhibition at 40 µM was 50%.

Regarding `C=CC(=O)N1CC[C@H](Nc2cc(C(F)(F)F)cc(C(F)(F)F)c2)C1` [Compound I-50, (S)-1-(3-((3,5-bis(trifluoromethyl)phenyl)amino)pyrrolidin-1-yl)prop-2-en-1-one], 40 µM produced 90% inhibition.

`C=CC(=O)N1CC[C@H](Nc2cc(C(F)(F)F)ccc2Cl)C1` [Compound I-51, (S)-1-(3-((2-chloro-5-(trifluoromethyl)phenyl)amino)pyrrolidin-1-yl)prop-2-en-1-one] registered an inhibition at 40 µM of 90%.

In turn, `C=CC(=O)N1CC[C@H](Nc2cc(Cl)cc(C(F)(F)F)c2)C1` [Compound I-52, (S)-1-(3-((3-chloro-5-(trifluoromethyl)phenyl)amino)pyrrolidin-1-yl)prop-2-en-1-one] displayed an inhibition at 40 µM of 70%.

For `C=CC(=O)N1CC[C@H](Nc2cc(C(F)(F)F)ccc2OC)C1` [Compound I-56, (S)-1-(3-((2-methoxy-5-(trifluoromethyl)phenyl)amino)pyrrolidin-1-yl)prop-2-en-1-one], the inhibition at 40 µM was 50%.

Compound `C=CC(=O)N1CC[C@H](Nc2cccc(C(F)(F)F)c2C)C1` [Compound I-57, (S)-1-(3-((2-methyl-3-(trifluoromethyl)phenyl)amino)pyrrolidin-1-yl)prop-2-en-1-one] yielded an inhibition at 40 µM of 70%.

The compound `C=CC(=O)N1CC[C@H](Oc2cccc(C(F)(F)F)c2)C1` [Compound I-58, (S)-1-(3-(3-(trifluoromethyl)phenoxy)pyrrolidin-1-yl)prop-2-en-1-one] returned an inhibition at 40 µM of 70%.

`C=CC(=O)N1CC[C@H](Nc2cncc(C(F)(F)F)c2)C1` [Compound I-61, (S)-1-(3-((5-(trifluoromethyl)pyridin-3-yl)amino)pyrrolidin-1-yl)prop-2-en-1-one]: testing at 40 µM gave an inhibition of 50%.

Turning to `C=CC(=O)N1C[C@@H](O)[C@H](Nc2cccc(C(F)(F)F)c2)C1` [Compound I-62, 1-((3R,4R)-3-hydroxy-4-((3-(trifluoromethyl)phenyl)amino)pyrrolidin-1-yl)prop-2-en-1-one], the inhibition at 40 µM was determined as 70%.

In turn, `C=CC(=O)N1CC[C@H](Nc2cccc(C(F)(F)F)c2N)C1` [Compound I-65, (S)-1-(3-((2-amino-3-(trifluoromethyl)phenyl)amino)pyrrolidin-1-yl)prop-2-en-1-one] gave an inhibition at 40 µM of 90%.
